# Measured values as given in ChEMBL document CHEMBL1125269, “Design of enzyme inhibitors using iterative protein crystallographic analysis” (J Med Chem, 1991).
# Experiments:
# [1] = system: CCRF-CEM; assay: Inhibition of cellular growth against human (CCRF-CEM) leukemias (ATCC) deficient in thymidine kinase.
# [2] = system: GC3/MTK-; assay: Inhibition of cellular growth against human adenocarcinoma (GC3/M TK-) deficient in thymidine kinase.
# [3] = system: L1210; assay: Inhibition of cellular growth against mouse (L1210) deficient in thymidine kinase.
# [4] = biological target: Thymidylate synthase (Escherichia coli, UniProt C3SWJ7)
# Thymidylate synthase (Escherichia coli, UniProt C3SWJ7), sequence (C3SWJ7 whole entry): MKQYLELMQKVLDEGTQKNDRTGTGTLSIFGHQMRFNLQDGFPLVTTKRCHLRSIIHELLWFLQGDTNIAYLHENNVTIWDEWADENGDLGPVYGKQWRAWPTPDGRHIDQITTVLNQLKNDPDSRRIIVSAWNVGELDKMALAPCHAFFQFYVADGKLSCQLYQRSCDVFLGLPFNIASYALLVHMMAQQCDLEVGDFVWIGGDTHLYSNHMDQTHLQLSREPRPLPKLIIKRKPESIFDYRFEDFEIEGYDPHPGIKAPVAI
# Description: Inhibition of Thymidylate synthase of Escherichia coli (Ki)
# [5] = system: GC3/MTK-; assay: Inhibition of cellular growth against human adenocarcinoma (GC3/M TK-) deficient in thymidine kinase
# [6] = system: CCRF-CEM; assay: Inhibition of cellular growth against human (CCRF-CEM) leukemias (ATCC) deficient in thymidine kinase
# [7] = system: L1210; assay: Inhibition of cellular growth against mouse (L1210) deficient in thymidine kinase
# [8] = biological target: Thymidylate synthase (Homo sapiens, UniProt P04818)
# Thymidylate synthase (Homo sapiens, UniProt P04818), sequence (P04818 whole entry): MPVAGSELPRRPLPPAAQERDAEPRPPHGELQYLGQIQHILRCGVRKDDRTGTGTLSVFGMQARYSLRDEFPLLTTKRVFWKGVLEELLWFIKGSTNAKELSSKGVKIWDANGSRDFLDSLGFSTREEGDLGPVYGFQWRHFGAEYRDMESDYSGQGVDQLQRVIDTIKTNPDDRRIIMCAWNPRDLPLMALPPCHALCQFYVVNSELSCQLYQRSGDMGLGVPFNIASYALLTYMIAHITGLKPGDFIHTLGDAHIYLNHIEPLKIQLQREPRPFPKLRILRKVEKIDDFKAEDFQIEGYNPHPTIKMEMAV
# Description: Inhibition of human Thymidylate synthase (Ki)
# [9] = biological target: Thymidylate synthase (Escherichia coli) (UniProt C3SWJ7)
# Thymidylate synthase (Escherichia coli), sequence (C3SWJ7 1-264): as the sequence (C3SWJ7 whole entry) above
# Description: Inhibition of Thymidylate synthase of Escherichia coli (Kii)
SMILES,IC50 [1] [nM],IC50 [2] [nM],IC50 [3] [nM],other results
C#CCN(Cc1ccc2nc(C)nc(O)c2c1)c1ccc(S(=O)(=O)c2ccccc2)c(C(F)(F)F)c1,3500,7500,2000,
Nc1nc2cc3c(cc2[nH]1)N(Cc1ccc(S(=O)(=O)c2ccccc2)cc1)CCC3,3900,,2000,Ki [4]: 43 nM; IC50 [5]: > 5000 nM
CCN(Cc1ccc(S(=O)(=O)N2CCNCC2)cc1)c1ccc2c3c(cccc13)C(=O)N2,,,6000,
C#CCN(Cc1ccc2[nH]c(N)nc(=O)c2c1)c1ccc(C(=O)NC(CCC(=O)O)C(=O)O)cc1 (centres undefined),750,1400,3500,
C#CCN(Cc1ccc2nc(C)nc(O)c2c1)c1cccc(C(F)(F)F)c1,,,,IC50 [6]: > 4300 nM; Ki [4]: 450 nM; IC50 [7]: > 4300 nM; IC50 [5]: > 4300 nM
CN(Cc1ccc(S(=O)(=O)N2CCNCC2)cc1)c1ccc2c3c(cccc13)C(=O)N2,8300,25000,2300,
Nc1nc2cc3c(cc2[nH]1)N(Cc1ccc(S(=O)(=O)N2CCNCC2)cc1)CCC3,2200,,2050,IC50 [5]: > 50000 nM
C#CCN(Cc1ccc2nc(C)nc(O)c2c1)c1ccc(S(=O)(=O)c2ccccc2)cc1,1600,1100,1000,
O=S(=O)(c1ccc(CN2CCCc3cc4[nH]cnc4cc32)cc1)N1CCNCC1,11000,43000,20000,Ki [4]: 4900 nM
C#CCN(Cc1ccc2nc(C)nc(O)c2c1)c1ccc(C(=O)NC(CCC(=O)O)C(=O)O)cc1 (centres undefined),43,49,59,Ki [8]: 8.5 nM; Ki [4]: 4.8 nM; Kii [9]: 0.013 µM
C#CCN(Cc1ccc2nc(C)nc(O)c2c1)c1ccc(S(=O)(=O)n2ccc3ccccc32)cc1,1300,1500,300,
CN(Cc1ccc(S(=O)(=O)c2ccccc2)cc1)c1ccc2c3c(cccc13)C(N)=N2,1600,4600,380,
C#CCN(Cc1ccc2nc(C)nc(O)c2c1)c1ccccc1,,> 10700,,IC50 [6]: > 10700 nM; IC50 [7]: > 10700 nM
CN(Cc1ccc(S(=O)(=O)c2ccccc2)cc1)c1ccc2c3c(cccc13)C(=O)N2,,,,IC50 [5]: > 5000 nM
